The target in experiment [1] is recombinant ceramidase from Pseudomonas aeruginosa PA01 (Pseudomonas aeruginosa, UniProt Q9I596). Nature of the experiment: Inhibition of recombinant Pseudomonas aeruginosa PA01 ceramidase, quenched fluorescent ceramide analog substrate. The format is biochemical. The note with it: for capability of inhibiting Pseudomonas aeruginosa ceramidase: known human ceramidase inhibitors, various concentrations, assay buffer containing 20 μM of substrate; for ceramidase inhibition ability, comparison in words: comparison among examples 1-9. Here is the method: The effect of various active compounds on the enzymatic activity of recombinant ceramidase from Pseudomonas aeruginosa PA01 was tested.
recombinant ceramidase from Pseudomonas aeruginosa PA01, sequence (Q9I596 25-670): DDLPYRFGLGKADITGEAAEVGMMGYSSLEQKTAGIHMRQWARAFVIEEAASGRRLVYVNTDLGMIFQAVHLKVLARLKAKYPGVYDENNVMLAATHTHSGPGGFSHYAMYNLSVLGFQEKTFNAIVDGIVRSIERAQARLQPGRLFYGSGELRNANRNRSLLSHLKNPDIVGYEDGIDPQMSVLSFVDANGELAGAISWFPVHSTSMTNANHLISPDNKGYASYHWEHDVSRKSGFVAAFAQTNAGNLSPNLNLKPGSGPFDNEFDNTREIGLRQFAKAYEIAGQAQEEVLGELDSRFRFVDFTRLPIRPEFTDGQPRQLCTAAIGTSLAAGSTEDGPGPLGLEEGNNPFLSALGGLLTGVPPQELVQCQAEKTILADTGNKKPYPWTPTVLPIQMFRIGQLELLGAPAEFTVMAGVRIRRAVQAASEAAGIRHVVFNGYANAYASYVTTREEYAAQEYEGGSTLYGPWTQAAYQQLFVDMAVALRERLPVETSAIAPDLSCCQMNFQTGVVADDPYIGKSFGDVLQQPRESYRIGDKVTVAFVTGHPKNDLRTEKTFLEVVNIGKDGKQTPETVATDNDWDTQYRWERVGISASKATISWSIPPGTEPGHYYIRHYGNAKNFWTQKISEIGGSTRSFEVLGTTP
The assays were performed at 25° C., with magnetic stirring, using Photo Technology International fluorimeter equipped with a LPS 220 Lamp Power Supply, a 810 Photomultiplier Detector System, a MD 5020 Motor Driver, and a Dell Dimensions M166a computer with FELIX® software. Excitation was done at 346 nm (±2 nm) and the emission was measured at 378 nm (±2 nm).The assay buffer consisted of 50 mM Tris/HCl, 4 mM CaCl2, 0.1% w/v Triton X-100, pH 8.5.
The active compounds were dissolved in DMF (dimethylformamide) to a concentration of 4 mM. Of these solutions, 250 μliter was added to 50 milliliter assay buffer under vortex, yielding 20 μM lipid solutions.
To 1 mL of the lipid solution in a cuvet, 5 μL of quenched fluorescent ceramide analog as a substrate was added (end concentration 2 μM) and the system was allowed to equilibrate for 5 minutes. Then 5 μL of recombinant ceramidase was added (end concentration 4.3 nM). The reaction was allowed to proceed for 20 minutes. The slope at 378 nm was used to determine the reaction rate.
Control experiments were done in the absence of sphingolipids, with corresponding amounts of DMF (0.5% v/v for the 20 μM samples). The reaction rate of the controls was set at 100%. The percentages in the table are given as % of inhibition (control value—reaction rate of the sample).
The potential of several known human ceramidase inhibiting compounds of inhibiting Pseudomonas aeruginosa PA01 ceramidase was tested at various concentrations, in the assay buffer containing 20 μM of substrate.
The potential of several ceramide and sphingoid bases of inhibiting Pseudomonas aeruginosa PA01 ceramidase was tested at a pH of 8.5, using respectively, 2 μM and 20 μM of ceramidase substrate, 1.6 mM Triton X-100 and 4 mM of CaCl2.

Experiment [2] concerns ceramidase originating from guinea pig epidermis. The note with it: in vitro; cited from earlier work.
For experiment [3], the target named is T1, ceramidase originating from mitochondria of rat brain (Rattus norvegicus, UniProt Q91XT9).
T1 construct: host or cells: rat brain mitochondria
T1 sequence (Q91XT9 whole entry): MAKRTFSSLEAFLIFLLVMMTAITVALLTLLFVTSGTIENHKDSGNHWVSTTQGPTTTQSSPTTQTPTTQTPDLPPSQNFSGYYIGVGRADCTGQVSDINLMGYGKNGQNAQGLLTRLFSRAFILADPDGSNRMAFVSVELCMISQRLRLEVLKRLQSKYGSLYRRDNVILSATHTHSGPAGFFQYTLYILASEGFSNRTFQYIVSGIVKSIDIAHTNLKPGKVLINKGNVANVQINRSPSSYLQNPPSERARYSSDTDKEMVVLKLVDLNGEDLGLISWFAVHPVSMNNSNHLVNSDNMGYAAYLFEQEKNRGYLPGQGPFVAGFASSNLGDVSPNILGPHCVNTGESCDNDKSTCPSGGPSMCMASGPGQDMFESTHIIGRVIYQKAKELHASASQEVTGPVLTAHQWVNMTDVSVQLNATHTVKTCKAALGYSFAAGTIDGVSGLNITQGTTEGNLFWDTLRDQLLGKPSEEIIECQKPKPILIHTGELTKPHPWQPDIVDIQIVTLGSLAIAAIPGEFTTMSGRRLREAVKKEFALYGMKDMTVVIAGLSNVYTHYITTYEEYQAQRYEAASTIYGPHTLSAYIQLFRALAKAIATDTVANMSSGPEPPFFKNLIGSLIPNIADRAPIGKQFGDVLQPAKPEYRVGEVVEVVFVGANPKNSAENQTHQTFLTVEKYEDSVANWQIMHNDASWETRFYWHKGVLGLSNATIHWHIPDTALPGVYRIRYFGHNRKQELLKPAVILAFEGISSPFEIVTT
As to conditions: cited from earlier work.

The target of experiment [4] is T2, human alkaline ceramidase (aPHC) (Homo sapiens, UniProt Q9NUN7).
T2 construct: host or cells: yeast mutant strain (as cited)
T2 sequence (Q9NUN7 1-267): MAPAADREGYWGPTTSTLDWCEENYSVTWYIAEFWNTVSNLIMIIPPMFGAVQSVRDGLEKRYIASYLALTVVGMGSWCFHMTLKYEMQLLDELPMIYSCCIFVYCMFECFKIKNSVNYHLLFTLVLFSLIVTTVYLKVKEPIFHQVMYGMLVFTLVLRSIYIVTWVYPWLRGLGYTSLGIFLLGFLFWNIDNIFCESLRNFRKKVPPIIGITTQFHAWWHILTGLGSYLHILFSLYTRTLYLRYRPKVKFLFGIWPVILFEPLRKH
As to conditions: in vitro and in cells; cited from earlier work.

Where [5] appears, read: 20 μM active compound, pH 8.5, 25° C., 4 mM CaCl2, Triton X-100, control rate = 100%.

Structures are written as SMILES.

Turning to `CCCCCCCCCCCCCCCCC(O)C(=O)N[C@@H](CO)[C@H](O)[C@H](O)CCCCCCCCCCCCCC` (stereo partly drawn) [Ceramide VI], in experiment [1] (setting [5]), the “% of inhibition” value was determined as 11%. As to `C[C@@H](N)[C@@H](O)c1ccccc1` [D(+)-norephenidrin, reference compound], the “capability of inhibiting Pseudomonas aeruginosa ceramidase” value in experiment [1] is on record as “None of these compounds was found capable of inhibiting”. Same read-out and setting: the same measure for `CCCCCCCCCCCCCC(=O)N[C@H](C)[C@@H](O)c1ccccc1` [D-erytro-MAPP, (1S,2R)-D-erythro-2-(N-myristoylamino)-1-phenyl-1-propanol, reference compound]: “None of these compounds was found capable of inhibiting”. Regarding `CCCCCCCCCCCCCCC[C@H](O)[C@H](N)CO` [D/L sphinganine], the “% of inhibition” value in experiment [1] (setting [5]) was 83%. Turning to `CCCCCCCCCCCCC/C=C/[C@@H](O)[C@@H](N)CO` [D—erythro—sphingosine], the “% of inhibition” value in experiment [1] (setting [5]) was found to be 97%. In experiment [1], the “ceramidase inhibition ability, comparison in words” value was “highest ceramidase inhibition ability”.

Consider `C[C@H](N)[C@H](O)c1ccccc1` [L(−)-norephenidrin, reference compound], for which the “capability of inhibiting Pseudomonas aeruginosa ceramidase” value in experiment [1] is “None of these compounds was found capable of inhibiting”.

For `CCCCCCCCCCCCCC(=O)N[C@@H](C)[C@H](O)c1ccccc1` [L-erythro-MAPP, reference compound], in experiment [1], the “capability of inhibiting Pseudomonas aeruginosa ceramidase” value is reported as “None of these compounds was found capable of inhibiting”. In the case of `CCCCCCCCCCCCC/C=C/[C@H](O)[C@H](N)CO` [L—erythro—sphingosine], the “% of inhibition” value in experiment [1] (setting [5]) amounted to 20%. Same read-out and setting: as for `CCCCCCCCCCCCCC[C@@H](O)[C@@H](O)[C@H](CO)NC(C)=O` [MAPS, N-monoacetyl phytosphingosine], the figure is 35%. With `CCCCCCCC/C=C\CCCCCCCC(=O)NCCO` [N-oleoylethanolamine, reference compound], the “capability of inhibiting Pseudomonas aeruginosa ceramidase” value in experiment [1] is on record as “None of these compounds was found capable of inhibiting”.

Regarding `CCCCCCCCCCCCCC[C@@H](O)[C@@H](O)[C@H](CO)NC(C)=O` [N—acetyl—phytosphingosine], the “% of inhibition” value in experiment [1] (setting [5]) stood at 9%. Regarding `CCCCCCCCCCCCCC[C@@H](O)[C@@H](O)[C@@H](N)CO.Cl` [Phytosphingosine.HCl], the “% of inhibition” value in experiment [1] (2 μM active compound, pH 8.5, 25° C., 4 mM CaCl2, Triton X-100, control rate = 100%) was found to be 15%; in experiment [1] (setting [5]), 67%. For the same molecule, the “ceramidase inhibition ability, comparison in words” value in experiment [1] is “better ceramidase inhibiting effect than phytosphingosine”. The term inhibition denotes how much of the control response was suppressed. Regarding `CCCCCCCCCCCCCC[C@@H](O)[C@@H](O)[C@@H](N)CO` [Phytosphingosine], the inhibition at 2 µM in experiment [1] (pH 8.5, 2 μM active compound, pH 8.5, 25° C., 4 mM CaCl2, Triton X-100, control rate = 100%) came to 7.5%. The inhibition at 20 µM in experiment [1] (pH 8.5, read-out: % of inhibition, 20 μM active compound, pH 8.5, 25° C., 4 mM CaCl2, Triton X-100, control rate = 100%) is 60%.

Take `CCCCCCCCCCCCCCC(OC(C)=O)C(OC(C)=O)C(COC(C)=O)NC(C)=O` (stereo not drawn) [TAPS, tetraacetyl-phytosphingosine]: the “% of inhibition” value in experiment [1] (setting [5]) is listed as 22%. `CCCCCCCCCCCCC/C=C/[C@@H](O)[C@@H](N)CO` [sphingosine]: the inhibition of ceramidase entry in experiment [2] is “inhibiting ceramidase”; in experiment [3] it was “capable of inhibiting ceramidase”. For the same molecule, the “inhibition of human alkaline ceramidase” value in experiment [4] was “inhibited by sphingosine”.

These data come from patent publication US20030064936A1 (priority 2001, published 2003).
